Experimental data from US20110195974A1, “METHODS OF TREATING INFLAMMATORY CONDITIONS WITH ADRENERGIC ANTAGONISTS” (priority 2007, published 2011).
Entries after “also recorded” stand apart in the source; their conditions may differ. Counter-ions that a name gives are not always drawn.

Columns and labels:
TNFα = assay: Whole blood assay: inhibition of LPS-induced TNFα release (TNF ELISA); assay type: cell-based, human; details: for effect on TNF production or release (in words) / inhibition of TNF production at the upper range of the dose curve: 25% whole blood diluted in plasmalyte
Protocol: […]. […] The experiment was conducted at least 2 times in duplicates and the fitted representation above consists of the average of those experiments. The IC50 values were calculated using logistic analysis on Origin Software.
FIG. 4 illustrates a graph showing the inhibition of release of TNF α by terbutaline and salbutamol. This assay evaluated the inhibition of TNF production by salbutamol and terbutaline using the whole blood assay. This method utilized an LPS induction at 10 μg/ml in 25% whole blood diluted in plasmalyte. […] Higher doses were not evaluated because the equivalent mg/kg doses would be too high, therefore, limiting their practical use under therapeutic conditions. IC50 values were not calculated. […] The data and the fit were calculated using Origin Software.
FIG. 5 illustrates a graph showing the inhibition of TNF production by butoxamine, and induction of TNF release by atenolol and metoprolol. […].
This assay measured prazosin alone, and the combination of: prasozin/butoxamine, prasozin/butoxamine/terbutaline, prasozin/butoxamine/salbutamol, and prazosin/salbutamol. […].
We collected whole human blood in a polypropylene tube. Containing a final concentration of 10 units of heparin per ml of blood using gravity flow with 19-gauge needle. To prevent non-specific activation of cells, we used the blood within 30 minutes of draw. The blood was diluted with plasmalyte to 50%, 40%, 30%, 20%, and 10% concentrations. In a matrix based assay set up, each blood dilution was treated with various concentrations of LPS dosages ranging from 60 μg/ml, 10 μg/ml, 6 μg/ml, 1 μg/ml, 0.6 μg/ml, 0.1 μg/ml, and 0.06 μg/ml. The LPS treated blood was incubated at 37 degree in an incubator with continues rotation. Following the incubation, the blood was centrifuged and the plasma was evaluated for TNF quantification using the ELISA assay (BD Biosciences, Los Angeles, Calif.).
We initially tested the ability of LPS to produce TNF from monocytes, by adding various dilutions of LPS (60 μg, 10 μg, 6 μg, 1 μg, 0.6 μg, 0.1 μg, 0.06 μg) per ml of diluted blood (blood dilutions 50%, 40%, 20%, 10%, and 5%). Blood dilutions were made in the clinically relevant buffer “plasmalyte”. LPS treated blood was incubated at 37° C. for 2 hr. Following incubation, we separated the plasma samples by centrifugation. We evaluated the samples using TNF-ELISA. […] Relying on FIG. 1, we conducted a blood dilution curve with 10 μg/ml LPS (FIG. 2). Based on interpretation of FIGS. 1 and 2, we concluded that blood dilution of 20-25% would be ideal at an LPS dose of 10 μg/ml. Based on the FIG. 2 data, we found LPS causes a near linear increase of TNF production in 20% blood. […] If there is too much blood, there will be heavy concentrations of TNF production, exceeding the detection levels of the assay. Using this optimization data, we created a fixed method to measure the inhibition of TNF production or release with various drugs and drug combinations.
Blood was drawn from thirteen independent donors under an IRB approved protocol. […] The blood samples were spun and plasma evaluated for TNF production using TNF ELISA from BD Biosciences. […]. […] It could also provide a possible treatment for rheumatoid arthritis. […]

arthritis [1] = details: cited from earlier work; for inhibition of inflammation in an arthritis model: in vivo
knee and ankle joints = assay: Histology of knee and ankle joints after CIA; details: CIA mice
[2] = Body weight in mouse CIA model (gross measure of drug toxicity); details: CIA mice, days 18-35
[3] = tested on: collagen induced arthritis; details: cited from earlier work
arthritis [4] = details: rat arthritis model; cited from earlier work
[5] = CIA mice, same experimental protocol; cited from earlier work

In the case of COc1ccc(OC)c(C(O)C(C)NC(C)(C)C)c1 (racemic) [Butoxamine, DL-erythro-α-(2,5-dimethoxyphenyl)-β-t-butyl aminopropanol hydrochloride], the “effect on TNF production or release (in words)” value (from here on “effect”) (TNFα; LPS 10 μg/ml) is listed as “very little inhibition if at all”, the “inhibition of TNF production at the upper range of the dose curve” value (TNFα; LPS 10 μg/ml) is listed as ≤ 20% and the “inhibition of arthritis in animals (in words)” value (arthritis [1]; previous reports) is listed as “potent inhibitor of arthritis in animals”.
With CC(C)NCC(O)COc1ccc(CC(N)=O)cc1 (stereo not shown) [Atenolol, atenolol] the “effect” value (TNFα; LPS 10 μg/ml) was “significant elevation in the TNF response; also recorded: activators of TNF release”.
In the case of COCCc1ccc(OCC(O)CNC(C)C)cc1 (stereo not shown) [Metoprolol, metoprolol], the “effect” value (TNFα; LPS 10 μg/ml) is reported as “significant elevation in the TNF response; also recorded: activators of TNF release”.
In the case of Cc1ccc(N(CC2=NCCN2)c2cccc(O)c2)cc1 [Phentolamine, phentolamine], the “effect” value (TNFα; LPS 10 μg/ml) is reported as “does not have the same level of inhibition as prazosin and yohimbine alone”.
In the case of COc1cc2nc(N3CCN(C(=O)c4ccco4)CC3)nc(N)c2cc1OC [Prazosin, prazosin], the “drug concentration at which TNF activity is inhibited” value (TNFα; LPS 10 μg/ml, 25% blood diluted in plasmalyte) is reported as 20 µg/mL, the “effect” value (TNFα; LPS 10 μg/ml) is reported as “lowest IC50” and the “inhibition of TNF production at the upper range of the dose curve” value (TNFα; LPS 10 μg/ml) is reported as ~100%. The “inhibition of TNF at the upper range of the dose curve, thirteen donors” value (TNFα; blood of thirteen independent donors, 37 degrees, 2 hours) was ~100%, the “joint histology (Toluidine blue)” value (knee and ankle joints) was “prevents inflammation, bone and cartilage destruction, pannus formation and bone erosion” and the body weight change [2] was “weight remained constant”. For the same compound, the body weight change ([2]; listed as NM2014) was “essentially unchanged”.
For CC(C)(C)NCC(O)c1ccc(O)c(CO)c1 (stereo not shown) [Salbutamol, salbutamol], the “inhibition of inflammation in an arthritis model” value (arthritis [1]) is listed as 50% and the “severity of collagen-induced arthritis (in words)” value ([3]; mouse, in vivo) is listed as “reduces the severity of collagen-induced arthritis”.
In the case of CC(C)(C)NCC(O)c1cc(O)cc(O)c1 (stereo not shown) [Terbutaline, terbutaline], the “effect” value (TNFα; LPS 10 μg/ml) is listed as “minimal effect”, the “inhibition of inflammation in an arthritis model” value (arthritis [1]) is listed as 50% and the “reduction of disease severity” value (arthritis [4]) is listed as 50%. The “benefit in collagen induced arthritis” value ([3]; mice) was 50%.
With COC(=O)[C@@H]1[C@H]2C[C@H]3c4[nH]c5ccccc5c4CCN3C[C@@H]2CC[C@@H]1O [Yohimbine, yohimbine] the IC50 (TNFα; Homo sapiens, LPS 10 μg/ml, 25% blood diluted in plasmalyte, 37° C. 2 h) was 70 to 100 µg/mL and the “inhibition of TNF production at the upper range of the dose curve” value (TNFα; LPS 10 μg/ml) was 80%.
In the case of Enbrel, the “body weight change, historical Enbrel data” value [5] is given as “essentially unchanged”.
